Counter-ions that a name gives are not always drawn.

One test concerns the target T1, IRAK4 (Homo sapiens, UniProt Q9NWZ3).
T1 sequence (Q9NWZ3 1-460): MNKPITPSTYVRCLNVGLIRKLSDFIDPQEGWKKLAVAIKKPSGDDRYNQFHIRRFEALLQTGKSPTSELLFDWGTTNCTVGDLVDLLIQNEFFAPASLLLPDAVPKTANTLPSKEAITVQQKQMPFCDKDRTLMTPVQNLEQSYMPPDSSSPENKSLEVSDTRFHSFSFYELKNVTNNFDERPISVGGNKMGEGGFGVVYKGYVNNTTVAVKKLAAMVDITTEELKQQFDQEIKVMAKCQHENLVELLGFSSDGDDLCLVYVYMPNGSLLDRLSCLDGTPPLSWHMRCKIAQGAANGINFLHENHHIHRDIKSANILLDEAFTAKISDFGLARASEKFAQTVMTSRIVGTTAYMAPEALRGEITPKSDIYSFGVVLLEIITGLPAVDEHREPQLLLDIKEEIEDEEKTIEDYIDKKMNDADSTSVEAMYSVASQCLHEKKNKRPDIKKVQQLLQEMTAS
Nature of the test: biochemical.
Conditions: not given
As for `CC(C)Oc1nc2nc(C34COC(C)(C3)C4)cn2cc1C(=O)Nc1cnn2cc(C3CC3)cnc12` [Example 375, N-(6-cyclopropylpyrazolo[1,5-a]pyrimidin-3-yl)-7-isopropoxy-2-(1-methyl-2-oxabicyclo[2.1.1]hexan-4-yl)imidazo[1,2-a]pyrimidine-6-carboxamide], the IC50 stood at 0.0067 µM.
The compound `CC(C)Oc1nc2nc(C34CCC(C3)OC4)cn2cc1C(=O)Nc1cnn2cccnc12` (stereo not shown) [Example 565, 2-(2-Oxabicyclo[2.2.1]heptan-4-yl)-7-isopropoxy-N-(pyrazolo[1,5-a]pyrimidin-3-yl)imidazo[1,2-a]pyrimidine-6-carboxamide] had an IC50 of 0.0005 µM.
`CC(C)Oc1nc2nc(C34COC(C)(C3)C4)cn2cc1C(=O)Nc1cccc(C(F)F)c1` [Example 386, N-(3-(difluoromethyl)phenyl)-7-isopropoxy-2-(1-methyl-2-oxabicyclo[2.1.1]hexan-4-yl)imidazo[1,2-a]pyrimidine-6-carboxamide] gave an IC50 of 0.0012 µM.
`CCOc1cc(C(=O)Nc2cccc(C(F)F)n2)cn2cc([C@H]3CCCOC3)nc12` (single isomer, unassigned) [Example 55] registered an IC50 of 0.0135 µM.
On the same count and under the same terms, then `CC(C)Oc1nc(C(=O)Nc2cnn3cccnc23)cn2cc(C34COC(CF)(C3)C4)nc12` [Example 340, 2-(1-(Fluoromethyl)-2-oxabicyclo[2.1.1]hexan-4-yl)-8-isopropoxy-N-(pyrazolo[1,5-a]pyrimidin-3-yl)imidazo[1,2-a]pyrazine-6-carboxamide], with 0.0067 µM; and `CC12CC(c3cn4cc(C(=O)Nc5cccc6ccnn56)nc(OC5CCC5)c4n3)(CO1)C2` [Example 348, 8-Cyclobutoxy-2-(1-methyl-2-oxabicyclo[2.1.1]hexan-4-yl)-N-(pyrazolo[1,5-a]pyridin-7-yl)imidazo[1,2-a]pyrazine-6-carboxamide], with 0.0082 µM.
On the same count and under the same terms, then `CC(C)Oc1nc2nc([C@]34CC[C@](C)(C3)OC4)cn2cc1C(=O)Nc1cnn2cc(F)cnc12` (single isomer, unassigned) [Example 631], with 0.0004 µM; and `CC(C)Oc1c(C(=O)Nc2cccn(C)c2=O)cn2cc(C34COC(C)(C3)C4)nc2c1Cl` [Example 255, 8-Chloro-7-isopropoxy-N-(1-methyl-2-oxo-1,2-dihydropyridin-3-yl)-2-(1-methyl-2-oxabicyclo[2.1.1]hexan-4-yl)imidazo[1,2-a]pyridine-6-carboxamide], with 0.158 µM.
On the same count and under the same terms, then `CCOc1nc2nc(C34COC(C)(C3)C4)cn2cc1C(=O)Nc1cccnc1OC` [Example 242], with 0.0013 µM.
Compound `CCCOc1nc(C(=O)Nc2cccc(C(F)F)n2)cn2cc(C3CCOCC3)nc12` [Example 335, N-(6-(difluoromethyl)pyridin-2-yl)-8-propoxy-2-(tetrahydro-2H-pyran-4-yl)imidazo[1,2-a]pyrazine-6-carboxamide] registered an IC50 of 0.0006 µM.
Same read-out and setting: then `CC(C)Oc1cc2nc(C34COC(C)(C3)C4)cn2cc1C(=O)Nc1ccccn1` [Example 219], with 0.0069 µM.
For the compound `Cc1cnc2c(NC(=O)c3cn4cc(C56COC(C5)C6)nc4nc3OC(C)C)cnn2c1` [Example 432], the IC50 is 0.0006 µM.
Still for that read-out and setting: as for `CC(C)Oc1cc2nc(C34COC(C)(C3)C4)cn2cc1C(=O)Nc1cnn2ccc(Cl)nc12` [Example 264, N-(5-chloropyrazolo[1,5-a]pyrimidin-3-yl)-7-isopropoxy-2-(1-methyl-2-oxabicyclo[2.1.1]hexan-4-yl)imidazo[1,2-a]pyridine-6-carboxamide], the figure is 0.0002 µM.
The same measure, in the same setting: as for `CC(C)Oc1nc(C(=O)Nc2cnn3cccnc23)cn2cc(C34CCC(C)(CC3)OC4)nc12` [Example 428, 8-Isopropoxy-2-(1-methyl-2-oxabicyclo[2.2.2]octan-4-yl)-N-(pyrazolo[1,5-a]pyrimidin-3-yl)imidazo[1,2-a]pyrazine-6-carboxamide], the figure is 0.0016 µM; as for `CCOc1nc(C(=O)Nc2cccc(C(F)(F)F)c2)cn2cc(C34COC(C)(C3)C4)nc12` [Example 497, 8-Ethoxy-2-(1-methyl-2-oxabicyclo[2.1.1]hexan-4-yl)-N-(3-(trifluoromethyl)phenyl)imidazo[1,2-a]pyrazine-6-carboxamide], 0.007 µM; as for `CC(C)Oc1nc2nc(C34COC(C)(C3)C4)cn2cc1C(=O)Nc1cnn2cccc(F)c12` [Example 408, N-(4-fluoropyrazolo[1,5-a]pyridin-3-yl)-7-isopropoxy-2-(1-methyl-2-oxabicyclo[2.1.1]hexan-4-yl)imidazo[1,2-a]pyrimidine-6-carboxamide], 0.0007 µM.
For the compound `Cc1cnc2c(NC(=O)c3cn4cc(C56COC(CF)(C5)C6)nc4c(F)c3OC(C)C)cnn2c1` [Example 270, 8-Fluoro-2-(1-(fluoromethyl)-2-oxabicyclo[2.1.1]hexan-4-yl)-7-isopropoxy-N-(6-methylpyrazolo[1,5-a]pyrimidin-3-yl)imidazo[1,2-a]pyridine-6-carboxamide], it took 0.0023 µM to reach half-maximal inhibition (IC50).
In the case of `COc1ncccc1NC(=O)c1cn2cc([C@]34CC[C@](C)(C3)OC4)nc2nc1OC(C)C` (single isomer, unassigned) [Example 579], inhibition was half-maximal at 0.0004 µM (IC50).
The same measure, in the same setting: then `COc1ncccc1NC(=O)c1cn2cc(C34COC(C)(C3)C4)nc2cc1OC1CCC1` [Example 526, 7-Cyclobutoxy-N-(2-methoxypyridin-3-yl)-2-(1-methyl-2-oxa-bicyclo[2.1.1]hexan-4-yl)imidazo[1,2-a]pyridine-6-carboxamide], with 0.0003 µM; and `CC12CCC(c3cn4cc(C(=O)Nc5cnn6cc(F)cnc56)c(OC5CC5)cc4n3)(CO1)C2` (stereo not shown) [Example 556], with 0.0005 µM; and `CC12CC(c3cn4cc(C(=O)Nc5cccn(C(F)F)c5=O)c(OC5CCC5(C)C)cc4n3)(CO1)C2` (stereo not shown) [Example 439, N-(1-(difluoromethyl)-2-oxo-1,2-dihydropyridin-3-yl)-7-(2,2-dimethylcyclobutoxy)-2-(1-methyl-2-oxabicyclo[2.1.1]hexan-4-yl)imidazo[1,2-a]pyridine-6-carboxamide], with 0.0028 µM.

The test is the same for the next values; noted with them: IRAK4 Biochemical Assay (1 mM ATP, 2 h) IC50 (μM), 1 mM ATP, 2 h, 100 pM IRAK4.
`CC(C)Oc1cc2nc(C34CCC(C)(CC3)OC4)cn2cc1C(=O)Nc1cccn(C)c1=O` [Example 574, 7-Isopropoxy-N-(1-methyl-2-oxo-1,2-dihydropyridin-3-yl)-2-(1-methyl-2-oxabicyclo[2.2.2]octan-4-yl)imidazo[1,2-a]pyridine-6-carboxamide] had an IC50 of 0.0002 µM.
Consider `COc1ncccc1NC(=O)c1cn2c(F)c(C34COC(C)(C3)C4)nc2cc1OC(C)C` [Example 325, 3-Fluoro-7-isopropoxy-N-(2-methoxypyridin-3-yl)-2-(1-methyl-2-oxa-bicyclo[2.1.1]hexan-4-yl)imidazo[1,2-a]pyridine-6-carboxamide trifluoroacetate], for which half-maximal inhibition (IC50) required 0.0086 µM.
With `CC(C)Oc1cc2nc(C34COC(C)(C3)C4)cn2cc1C(=O)Nc1cccc(N(C)C)n1` [Example 260, N-(6-(dimethylamino)pyridin-2-yl)-7-isopropoxy-2-(1-methyl-2-oxabicyclo[2.1.1]hexan-4-yl)imidazo[1,2-a]pyridine-6-carboxamide 2,2,2-trifluoroacetate], the IC50 amounted to 0.0005 µM.
On the same count and under the same terms, then `CC12CC(c3cn4cc(C(=O)Nc5cccn(C6CC6)c5=O)c(OC5CCC5)nc4n3)(CO1)C2` [Example 651, 7-Cyclobutoxy-N-(1-cyclopropyl-2-oxo-1,2-dihydropyridin-3-yl)-2-(1-methyl-2-oxabicyclo[2.1.1]hexan-4-yl)imidazo[1,2-a]pyrimidine-6-carboxamide], with 0.0005 µM.

By IC50 is commonly meant the midpoint of a concentration-inhibition curve. Read a low IC50 as greater potency in that assay.

The values are drawn from US20230087118A1, “IMIDAZO[1,2-a][sequence] DERIVATIVES AND THEIR USE IN THE TREATMENT OF DISEASE” (priority 2019, published 2023).
